Test results as given in patent publication US8562586B2, “Devices and systems for local delivery of inotropic agents to the epicardium” (Massachusetts Institute of Technology, priority 2008, dated 2013).

Tests used:
[1] = tested on: Hannaford swine; test: Hemodynamic measurements in anesthetized swine, epicardial patch vs pericardial catheter vs IV; assay type: in vivo
Experimental: Hannaford swine (15-25 weeks old, 45-60 kg) were fasted overnight but given full access to water. Telazol (2 mg/kg IM at a ratio of zolazepam:tiletamine of 1:1) was given IM for sedation. Anesthesia was induced with inhaled isoflurane 2% prior to tracheal intubation (9.0 cuffed). A 22 gauge peripheral IV was inserted into an ear vein for drug administration and volume resuscitation (Ringer's lactate 4 ml/kg/hr). Anesthesia was maintained during surgical preparation with isoflurane 2% in oxygen. Respiratory rate was be fixed to 10 breaths per minute and the tidal volume adjusted between 6 and 10 ml/kg to maintain expired end-tidal carbon dioxide between 35 and 40 mmHg. Inhaled isoflurane was discontinued after surgical preparation, and balanced total intravenous anesthesia was initiated with pentobarbital (10 mg/kg/hr) and pancuronium (0.5 mcg/kg/hr) prior to experimentation.
Vascular access introducer sheaths (7 FR) were placed in a femoral vein, the right internal jugular vein and both femoral arteries using a Seldinger technique under ultrasound guidance. A balloon tipped pulmonary artery catheter was inserted through the right internal jugular venous sheath and into the pulmonary artery to allow measurement of central venous pressure (CVP), pulmonary artery pressures, and thermodilution cardiac output. Heparin 5000 units was given to keep activated clotting time above 250 seconds. A pig-tail Millar conductance catheter was advanced retrograde across the aortic valve from the right femoral arterial sheath, and allows instantaneous recordings of the pressure and volume within the left ventricle. Following midline sternotomy the pericardium was retracted. Excess Ringer's lactate solution was given to replace blood losses and maintain CVP greater than 8 mm Hg. Continuous hemodynamic measurements were taken including heart rate (HR), mean arterial pressure (MAP), central venous pressure (CVP), contractility (max dP/dt), systemic vascular resistance (SVR), stroke volume (SV), cardiac output (CO) and stroke work (SW).
A pericardial drug releasing platform was constructed from 2 calcium crosslinked alginate disks which were sealed around the edges with GluStitch and formed a bladder for pericardial drug. A catheter was placed into the bladder formed by the two disks and allowed continuous infusion of inotropic drug into the pericardial fluid. This device spread drug over the surface of the heart at a controllable rate of delivery. In another experiment, dobutamine was introduced into the pericardial sac through a catheter without the use of the patch.
In yet another experiment, dobutamine was introduced intravenously.

[2] = tested on: Sprague Dawley rat; test: Hemodynamic and contractile indices in anesthetized rat, epicardial alginate patch vs IV infusion; assay type: in vivo; settings: for systemic vascular resistance: FIG. 5
Experimental: A Sprague Dawley rat was anesthetized with pentobarbital and catheters were placed in the right internal jugular vein and right femoral artery for continuous pressure measurement and IV access. An arteriotomy in the right carotid artery allowed passage of a Millar (Houston, Tex.) conductance pressure-volume catheter across the aortic valve and into the left ventricle. This catheter allows measurement of indices of myocardial contractile function. A tracheotomy was performed and the animal ventilated prior to sternotomy and chest retraction.
A pericardial drug releasing platform was made from a calcium crosslinked alginate disk (6.5 mm diameter) and placed on top of the left ventricle. Dobutamine was then applied to the drug release platform for pericardial inotropic treatments. […]

[3] = Plasma dobutamine levels in arterial blood samples of swine; assay type: in vivo; settings: FIG. 10
From the text: Arterial blood samples were taken for measurement of plasma dobutamine levels.

[4] = intravenous infusion systems; cited from earlier work
[5] = Drug levels within the myocardium, tissue core from under the device, swine; assay type: in vivo; settings: patch release compared with IV infusion at the same dosage, all tissue depths, FIG. 11
From the text: The heart was arrested with a large potassium IV bolus and removed. A core of tissue from under the device was taken for measurement of drug levels within the myocardium.

[6] = patch delivery, PV loop, FIG. 4
[7] = patch release 1 mcg/kg/min compared with IV infusion at the same dosage, FIG. 3
[8] = patch release compared with intravenous infusion, FIG. 6

## CC(CCc1ccc(O)cc1)NCCc1ccc(O)c(O)c1 (centres unmarked) [dobutamine]
[1]; after pericardial application, FIG. 8
  time response of increasing contractility: very rapid
[1]; patch 0.5 mcg/kg/min compared with IV infusion at the same dosage, FIG. 9
  stroke work per stroke volume: less
[1]; patch release compared with release via catheter in the pericardial sac, FIG. 7
  myocardial contractility, dose response: greater increase
[1]; patch release, FIG. 8
  cardiac output: increased
  contractility: increased
  systemic vascular resistance: without significantly reducing
[2]; intravenous infusion 1 mcg/kg/min
  systemic vascular resistance: excessively decreases
[2]; patch 1 mcg/kg/min compared with IV infusion at the same dosage, FIG. 4
  cardiac work efficiency: more efficient cardiac work
[2]; patch 1 mcg/kg/min compared with IV infusion at the same dosage, pressure volume loops, FIG. 4
  ventricular stroke volume: greater ventricular stroke volume
[2]; [6]
  LV pressure during ejection: no increase
  diastolic filling: minimal change
  end-systolic volume: marked reduction
[2]; patch delivery, area inside PV loop, FIG. 4
  myocardial stroke work (SW): minimal increase
[2]; [7]
  contractility of myocardial tissue (max dP/dt): greater increase in contractility
  duration of the increase in contractility: sustained for a longer period of time
[2]; patch release 1 mcg/kg/min
  systemic vascular resistance: only minimal effect
[2]; [8]
  increase in contractility relative to dose: larger increase in contractility with a smaller dose
  potency and effect on contractility: more potent and efficacious
[3]; intravenous infusion compared with patch release
  plasma concentration: substantially higher
[3]; pericardial (patch) delivery compared with IV delivery
  plasma drug levels: lower
[4]
  dosage typically required for therapeutic effect on contractility: at least 2 mcg/kg/min
[5]
  myocardial dobutamine concentration: orders of magnitude higher

## C[C@@H]1CC(=O)NN=C1c1ccc(NN=C(C#N)C#N)cc1 [levosimendan]
[4]
  dosage typically required for therapeutic effect on contractility: ≥ 0.1 µg/kg/min
